Assay results published in patent publication US20060252807A1, “Novel ortho-terphenyl inhibitors of p38 kinase and methods of treating inflammatory disorders” (Kalypsys, Inc., priority 2005, published 2006).

Target: T1, active p38 alpha enzyme (Upstate Biotechnology) (Homo sapiens, UniProt Q16539)
T1 construct: purchased Upstate Biotechnology
Test: p38α biochemical assay (ATP turnover, luminescent detection, Cambrex PKlight)
Settings: p38α kinase; Table 1 Biological Activity
In short: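 Active p38α phosphorylates MapkapK2 whole protein with 1.4 uM final ATP, 2 h at 30C, in Tris/MOPS buffer with MgCl2, CaCl2, EGTA, EDTA, glycerol, β-mercaptoethanol and 1 mg/ml BSA. Compounds pin-delivered from DMSO; total ATP turnover read by luminescence after PKlight addition.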

T1 sequence (Q16539 whole entry): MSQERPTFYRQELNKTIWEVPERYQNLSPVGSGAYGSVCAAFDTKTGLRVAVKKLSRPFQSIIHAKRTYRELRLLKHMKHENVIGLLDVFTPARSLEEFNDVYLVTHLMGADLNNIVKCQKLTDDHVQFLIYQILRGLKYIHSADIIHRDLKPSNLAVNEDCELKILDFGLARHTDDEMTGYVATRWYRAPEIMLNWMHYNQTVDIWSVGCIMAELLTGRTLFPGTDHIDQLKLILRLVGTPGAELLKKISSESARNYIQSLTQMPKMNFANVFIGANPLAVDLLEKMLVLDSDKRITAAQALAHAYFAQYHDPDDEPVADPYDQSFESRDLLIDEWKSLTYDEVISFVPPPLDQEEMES

Row | Compound | IC50
1 | CC(C)NC(=O)c1csc(-c2c(-c3ccc(F)cc3)noc2CN2CCC(O)(O)CC2)n1 [Example 1561] | > 1000 nM
2 | CCOC(=O)C1CCN(Cc2onc(-c3ccc(F)cc3)c2-c2nc(C(=O)NC(C)C)cs2)CC1 [Example 1562] | > 1000 nM
3 | CCOC(=O)C1CCCN(Cc2onc(-c3ccc(F)cc3)c2-c2nc(C(=O)NC(C)C)cs2)C1 (stereo not drawn) [Example 1563] | > 1000 nM
4 | CCOC(=O)N1CCN(Cc2onc(-c3ccc(F)cc3)c2-c2nc(C(=O)NC(C)C)cs2)CC1 [Example 1564] | > 1000 nM
5 | CC(C)NC(=O)c1csc(-c2c(-c3ccc(F)cc3)noc2CN(CCC#N)Cc2cccnc2)n1 [Example 1566] | > 1000 nM
6 | CC(C)NC(=O)c1csc(-c2c(-c3ccc(F)cc3)noc2CN2CCN(c3ccccc3)CC2)n1 [Example 1567] | > 1000 nM
7 | CC(C)NC(=O)c1csc(-c2c(-c3ccc(F)cc3)noc2CN2CCN(c3ccccn3)CC2)n1 [Example 1568] | > 1000 nM
8 | CCCCN(Cc1ccccc1)Cc1onc(-c2ccc(F)cc2)c1-c1nc(C(=O)NC(C)C)cs1 [Example 1569] | > 1000 nM
9 | CC(C)NC(=O)c1csc(-c2c(-c3ccc(F)cc3)noc2CN(CCO)[C@H](C)c2ccccc2)n1 [Example 1570] | > 1000 nM
10 | CC(C)NC(=O)c1csc(-c2c(-c3ccc(F)cc3)noc2CN(CCCO)Cc2ccccn2)n1 [Example 1571] | > 1000 nM
11 | CC(C)NC(=O)c1csc(-c2c(-c3ccc(F)cc3)noc2CN(C)CC(O)c2ccc(O)cc2)n1 (stereo not drawn) [Example 1572] | > 1000 nM
12 | CC(C)NC(=O)c1csc(-c2c(-c3ccc(F)cc3)noc2CN2CCN(C3CCCCC3)CC2)n1 [Example 1573] | > 1000 nM
13 | CC(C)NC(=O)c1csc(-c2c(-c3ccc(F)cc3)noc2CN2CCC(Cc3ccccc3)CC2)n1 [Example 1574] | > 1000 nM
14 | CC(C)NC(=O)c1csc(-c2c(-c3ccc(F)cc3)noc2CN2CCN(Cc3ccccc3)CC2)n1 [Example 1575] | > 1000 nM
15 | CC(C)NC(=O)c1csc(-c2c(-c3ccc(F)cc3)noc2CN2CCCN(Cc3ccccc3)CC2)n1 [Example 1576] | > 1000 nM
16 | CC(C)NC(=O)c1csc(-c2c(-c3ccc(F)cc3)noc2CN2CCN(c3ccc(O)cc3)CC2)n1 [Example 1577] | > 1000 nM
17 | CC(C)NC(=O)c1csc(-c2c(-c3ccc(F)cc3)noc2CN(CCN(C)C)Cc2ccccc2)n1 [Example 1578] | > 1000 nM
18 | CC(C)NC(=O)c1csc(-c2c(-c3ccc(F)cc3)noc2CN2CCN(c3ccccc3F)CC2)n1 [Example 1579] | > 1000 nM
19 | CC(C)NC(=O)C1=CSC(c2c(-c3ccc(F)cc3)noc2CN2CCN(c3ccc(F)cc3)CC2)=NC1 [Example 1580] | > 1000 nM
20 | CC(C)NC(=O)c1csc(-c2c(-c3ccc(F)cc3)noc2CN2CCN(CC3CCCCC3)CC2)n1 [Example 1581] | > 1000 nM
21 | CC(C)NC(=O)c1csc(-c2c(-c3ccc(F)cc3)noc2CN(C)C[C@H](O)c2ccc(O)c(O)c2)n1 [Example 1582] | > 1000 nM
22 | CCOC(=O)CC1C(=O)NCCN1Cc1onc(-c2ccc(F)cc2)c1-c1nc(C(=O)NC(C)C)cs1 (stereo not drawn) [Example 1583] | > 1000 nM
23 | CC(C)NC(=O)c1csc(-c2c(-c3ccc(F)cc3)noc2CN2CCN(C(=O)OC(C)(C)C)CC2)n1 [Example 1584] | > 1000 nM

Row | Compound | IC50
24 | CC(C)NC(=O)c1csc(-c2c(-c3ccc(F)cc3)noc2CN2CCC(NC(=O)OC(C)(C)C)C2)n1 (stereo not drawn) [Example 1585] | > 1000 nM
25 | CC(C)NC(=O)c1csc(-c2c(-c3ccc(F)cc3)noc2CN2CCN(c3ccccc3C#N)CC2)n1 [Example 1586] | > 1000 nM
26 | CC(C)NC(=O)c1csc(-c2c(-c3ccc(F)cc3)noc2CN2CCN(c3ccc(C#N)cn3)CC2)n1 [Example 1587] | > 1000 nM
27 | Cc1cccc(N2CCN(Cc3onc(-c4ccc(F)cc4)c3-c3nc(C(=O)NC(C)C)cs3)CC2)c1C [Example 1588] | > 1000 nM
28 | Cc1cccc(N2CCN(Cc3onc(-c4ccc(F)cc4)c3-c3nc(C(=O)NC(C)C)cs3)CC2C)c1 (stereo not drawn) [Example 1590] | > 1000 nM
29 | CC(C)NC(=O)c1csc(-c2c(-c3ccc(F)cc3)noc2CN2CCN(CCc3ccccc3)CC2)n1 [Example 1591] | > 1000 nM
30 | Cc1ccc(N2CCN(Cc3onc(-c4ccc(F)cc4)c3-c3nc(C(=O)NC(C)C)cs3)CC2)cc1C [Example 1592] | > 1000 nM
31 | Cc1ccc(N2CCN(Cc3onc(-c4ccc(F)cc4)c3-c3nc(C(=O)NC(C)C)cs3)CC2)c(C)c1 [Example 1593] | > 1000 nM
32 | Cc1ccc(C)c(N2CCN(Cc3onc(-c4ccc(F)cc4)c3-c3nc(C(=O)NC(C)C)cs3)CC2)c1 [Example 1594] | > 1000 nM
33 | COc1ccc(N2CCN(Cc3onc(-c4ccc(F)cc4)c3-c3nc(C(=O)NC(C)C)cs3)CC2)cc1 [Example 1595] | > 1000 nM
34 | COc1ccccc1N1CCN(Cc2onc(-c3ccc(F)cc3)c2-c2nc(C(=O)NC(C)C)cs2)CC1 [Example 1596] | > 1000 nM
35 | COc1cccc(N2CCN(Cc3onc(-c4ccc(F)cc4)c3-c3nc(C(=O)NC(C)C)cs3)CC2)c1 [Example 1597] | > 1000 nM
36 | COc1ccc(CCN(C)Cc2onc(-c3ccc(F)cc3)c2-c2nc(C(=O)NC(C)C)cs2)cc1OC [Example 1598] | > 1000 nM
37 | CC(C)NC(=O)c1csc(-c2c(-c3ccc(F)cc3)noc2CN2CCN(c3cccc(Cl)c3)CC2)n1 [Example 1599] | > 1000 nM
38 | CC(C)NC(=O)c1csc(-c2c(-c3ccc(F)cc3)noc2CN2CCN(c3ccc(Cl)cc3)CC2)n1 [Example 1600] | > 1000 nM
39 | CC(C)NC(=O)c1csc(-c2c(-c3ccc(F)cc3)noc2CN2CCN(c3ccc(F)cc3F)CC2)n1 [Example 1602] | > 1000 nM
40 | CC(C)NC(=O)c1csc(-c2c(-c3ccc(F)cc3)noc2CN(Cc2cccnc2)Cc2cccnc2)n1 [Example 1603] | > 1000 nM
41 | CC(C)NC(=O)c1csc(-c2c(-c3ccc(F)cc3)noc2CN2CCN(CCN3CCOCC3)CC2)n1 [Example 1604] | > 1000 nM
42 | CC(C)NC(=O)c1csc(-c2c(-c3ccc(F)cc3)noc2CN2CCC(N(C)C(=O)OC(C)(C)C)C2)n1 (stereo not drawn) [Example 1605] | > 1000 nM
43 | CC(=O)c1ccc(N2CCN(Cc3onc(-c4ccc(F)cc4)c3-c3nc(C(=O)NC(C)C)cs3)CC2)cc1 [Example 1606] | > 1000 nM
44 | CCN(CC)CCN(Cc1ccccc1)Cc1onc(-c2ccc(F)cc2)c1-c1nc(C(=O)NC(C)C)cs1 [Example 1607] | > 1000 nM
45 | CC(C)NC(=O)c1csc(-c2c(-c3ccc(F)cc3)noc2CN2CCN(c3ccc([N+](=O)[O-])cc3)CC2)n1 [Example 1608] | > 1000 nM
46 | CC(C)NC(=O)c1csc(-c2c(-c3ccc(F)cc3)noc2CN(C)Cc2cccc3ccccc23)n1 [Example 1609] | > 1000 nM

Row | Compound | IC50
47 | Cc1ccc(Cl)cc1N1CCN(Cc2onc(-c3ccc(F)cc3)c2-c2nc(C(=O)NC(C)C)cs2)CC1 [Example 1610] | > 1000 nM
48 | COc1cc(CN(C)Cc2onc(-c3ccc(F)cc3)c2-c2nc(C(=O)NC(C)C)cs2)cc(OC)c1OC [Example 1611] | > 1000 nM
49 | CC(C)NC(=O)c1csc(-c2c(-c3ccc(F)cc3)noc2CN(CCc2ccccc2)Cc2ccccc2)n1 [Example 1612] | > 1000 nM
50 | CC(C)NC(=O)c1csc(-c2c(-c3ccc(F)cc3)noc2CN(C)C(Cc2ccccc2)c2ccccc2)n1 (stereo not drawn) [Example 1614] | > 1000 nM
51 | CC(C)NC(=O)c1csc(-c2c(-c3ccc(F)cc3)noc2CN2CCC(O)(c3ccc(Cl)cc3)CC2)n1 [Example 1615] | > 1000 nM
52 | C#CCN(Cc1ccc(Cl)cc1Cl)Cc1onc(-c2ccc(F)cc2)c1-c1nc(C(=O)NC(C)C)cs1 [Example 1616] | > 1000 nM
53 | CCN(Cc1onc(-c2ccc(F)cc2)c1-c1nc(C(=O)NC(C)C)cs1)C(Cc1ccccc1)c1ccco1 (stereo not drawn) [Example 1617] | ≤ 1000 nM
54 | CC(C)NC(=O)c1csc(-c2c(-c3ccc(F)cc3)noc2CN2CCN(C(=O)OC(C)(C)C)C[C@H]2CO)n1 [Example 1618] | > 1000 nM
55 | CC(C)NC(=O)c1csc(-c2c(-c3ccc(F)cc3)noc2CN2CCN(c3ccc(C(C)(C)C)cc3)CC2)n1 [Example 1619] | > 1000 nM
56 | CC(C)NC(=O)c1csc(-c2c(-c3ccc(F)cc3)noc2CN2CCN(Cc3ccc4c(c3)OCO4)CC2)n1 [Example 1620] | > 1000 nM
57 | COc1cc2c(cc1OC)CN(Cc1onc(-c3ccc(F)cc3)c1-c1nc(C(=O)NC(C)C)cs1)CC2 [Example 1621] | > 1000 nM
58 | CC(C)NC(=O)c1csc(-c2c(-c3ccc(F)cc3)noc2CN2CCN(c3ccc(C(F)(F)F)cc3)CC2)n1 [Example 1622] | > 1000 nM
59 | CC(C)NC(=O)c1csc(-c2c(-c3ccc(F)cc3)noc2CN2CCN(c3cccc(C(F)(F)F)c3)CC2)n1 [Example 1623] | > 1000 nM
60 | CC(C)NC(=O)c1csc(-c2c(-c3ccc(F)cc3)noc2CN2CCN(c3ccc(Cl)c(Cl)c3)CC2)n1 [Example 1624] | > 1000 nM
61 | CC(C)NC(=O)c1csc(-c2c(-c3ccc(F)cc3)noc2CN2CCN(c3ccc(C(F)(F)F)cn3)CC2)n1 [Example 1626] | > 1000 nM
62 | CC(C)NC(=O)c1csc(-c2c(-c3ccc(F)cc3)noc2CN2CCN(c3ccccc3Cl)CC2)n1 [Example 1627] | > 1000 nM
63 | COc1ccc(N2CCN(Cc3onc(-c4ccc(F)cc4)c3-c3nc(C(=O)NC(C)C)cs3)CC2)cc1OC [Example 1628] | > 1000 nM
64 | CC(C)NC(=O)c1csc(-c2c(-c3ccc(F)cc3)noc2CN2CCCC(c3ccc(C(F)(F)F)cc3)C2)n1 (stereo not drawn) [Example 1629] | > 1000 nM
65 | CC(C)NC(=O)c1csc(-c2c(-c3ccc(F)cc3)noc2CNc2ccccc2)n1 [Example 1630] | > 1000 nM
66 | Cc1cccc(NCc2onc(-c3ccc(F)cc3)c2-c2nc(C(=O)NC(C)C)cs2)c1 [Example 1631] | > 1000 nM
67 | Cc1ccc(NCc2onc(-c3ccc(F)cc3)c2-c2nc(C(=O)NC(C)C)cs2)cc1 [Example 1632] | > 1000 nM
68 | Cc1ccccc1NCc1onc(-c2ccc(F)cc2)c1-c1nc(C(=O)NC(C)C)cs1 [Example 1633] | > 1000 nM
69 | Cc1ccc(NCc2onc(-c3ccc(F)cc3)c2-c2nc(C(=O)NC(C)C)cs2)nc1 [Example 1634] | > 1000 nM
